The source made the active and inactive calls. The calls are words filed in the database; no cut-off is given here.
Experiments:
A2780 [1] = test: Antitumor activity against human A2780 cells xenografted in BALB/c female nude mouse assessed as decrease in tumor weight at 10 to 20 mg/kg, ip administered on day 24 and measured every other day for 45 days; format: functional, organism-based; settings: dose 10-20 mg/kg, time 45.0 day
A2780 [2] = test: Antiproliferative activity against human A2780 cells assessed as decrease in cell viability incubated for 24 to 72 hrs by CCK-8 assay; format: functional, cell-based; settings: time 24-72 hrs
A2780 [3] = test: Antiproliferative activity against human A2780 cells assessed as decrease in cell viability at 3 to 12 uM by CCK-8 assay; format: functional, cell-based; settings: dose 3-12 µM, TDE = time-dependent effect
ES-2 [4] = test: Antiproliferative activity against human ES2 cells assessed as decrease in cell viability incubated for 24 to 72 hrs by CCK-8 assay; format: functional, cell-based; settings: time 24-72 hrs
ES-2 [5] = test: Antiproliferative activity against human ES2 cells assessed as decrease in cell viability at 3 to 12 uM by CCK-8 assay; format: functional, cell-based; settings: dose 3-12 µM, TDE = time-dependent effect
A2780 [6] = test: Antiproliferative activity against human A2780 cells assessed as decrease in cell viability at 3 to 12 uM incubated for 24 hrs by crystal violet staining based assay; format: functional; settings: dose 3-12 µM
ES-2 [7] = test: Antiproliferative activity against human ES2 cells assessed as decrease in cell viability at 3 to 12 uM incubated for 24 hrs by crystal violet staining based assay; format: functional; settings: dose 3-12 µM
A2780 [8] = test: Antiproliferative activity against human A2780 cells assessed as decrease in cell viability at 12 uM incubated for 24 hrs by crystal violet staining based assay relative to control; format: functional
ES-2 [9] = test: Antiproliferative activity against human ES2 cells assessed as decrease in cell viability at 12 uM incubated for 24 hrs by crystal violet staining based assay relative to control; format: functional
A2780 [10] = test: Inhibition of cell migration in human A2780 cells assessed as decrease in migration distance at 3 uM incubated for 24 hrs by wound healing assay relative to control; format: functional; design: scale not given: the % may be the effect or the level left
A2780 [11] = test: Inhibition of cell migration in human A2780 cells assessed as decrease in migration distance at 6 uM incubated for 24 hrs by wound healing assay relative to control; format: functional; design: scale not given: the % may be the effect or the level left
A2780 [12] = test: Inhibition of cell migration in human A2780 cells assessed as decrease in migration distance at 12 uM incubated for 24 hrs by wound healing assay relative to control; format: functional; design: scale not given: the % may be the effect or the level left
ES-2 [13] = test: Inhibition of cell migration in human ES2 cells assessed as decrease in migration distance at 3 uM incubated for 24 hrs by wound healing assay relative to control; format: functional; design: scale not given: the % may be the effect or the level left
ES-2 [14] = test: Inhibition of cell migration in human ES2 cells assessed as decrease in migration distance at 6 uM incubated for 24 hrs by wound healing assay relative to control; format: functional; design: scale not given: the % may be the effect or the level left
ES-2 [15] = test: Inhibition of cell migration in human ES2 cells assessed as decrease in migration distance at 12 uM incubated for 24 hrs by wound healing assay relative to control; format: functional; design: scale not given: the % may be the effect or the level left
A2780 [16] = test: Inhibition of cell invasion in human A2780 cells assessed as decrease in invasion rate at 3 uM incubated for 48 hrs by transwell assay; format: functional; design: scale not given: the % may be the effect or the level left
A2780 [17] = test: Inhibition of cell invasion in human A2780 cells assessed as decrease in invasion rate at 6 uM incubated for 48 hrs by transwell assay; format: functional; design: scale not given: the % may be the effect or the level left
A2780 [18] = test: Inhibition of cell invasion in human A2780 cells assessed as decrease in invasion rate at 12 uM incubated for 48 hrs by transwell assay; format: functional; design: scale not given: the % may be the effect or the level left
ES-2 [19] = test: Inhibition of cell invasion in human ES2 cells assessed as decrease in invasion rate 3 uM incubated for 48 hrs by transwell assay; format: functional; design: scale not given: the % may be the effect or the level left
ES-2 [20] = test: Inhibition of cell invasion in human ES2 cells assessed as decrease in invasion rate at 6 uM incubated for 48 hrs by transwell assay; format: functional; design: scale not given: the % may be the effect or the level left
ES-2 [21] = test: Inhibition of cell invasion in human ES2 cells assessed as decrease in invasion rate at 12 uM incubated for 48 hrs by transwell assay; format: functional; design: scale not given: the % may be the effect or the level left
A2780 [22] = test: Downregulation of AKT expression in human A2780 cells by Westernblot analysis; format: functional, cell-based
A2780 [23] = test: Downregulation of EGFR expression in human A2780 cells by Westernblot analysis; format: functional, cell-based
A2780 [24] = test: Downregulation of MMP-2 expression in human A2780 cells by Westernblot analysis; format: functional, cell-based
A2780 [25] = test: Downregulation of MMP-9 expression in human A2780 cells by Westernblot analysis; format: functional, cell-based
ES-2 [26] = test: Downregulation of AKT expression in human ES2 cells by Westernblot analysis; format: functional, cell-based
ES-2 [27] = test: Downregulation of EGFR expression in human ES2 cells by Westernblot analysis; format: functional, cell-based
ES-2 [28] = test: Downregulation of MMP-2 expression in human ES2 cells by Westernblot analysis; format: functional, cell-based
ES-2 [29] = test: Downregulation of MMP-9 expression in human ES2 cells by Westernblot analysis; format: functional, cell-based
[30] = Downregulation of EGFR expression in human A2780 cells at 12 uM by Westernblot analysis relative to control; format: functional
[31] = Downregulation of MMP-2 expression in human A2780 cells at 12 uM by Westernblot analysis relative to control; format: functional
[32] = Downregulation of MMP-9 expression in human A2780 cells at 12 uM by Westernblot analysis relative to control; format: functional
[33] = Downregulation of EGFR expression in human ES2 cells at 12 uM by Westernblot analysis relative to control; format: functional, ES-2
[34] = Downregulation of MMP-2 expression in human ES2 cells at 12 uM by Westernblot analysis relative to control; format: functional, ES-2
[35] = Downregulation of MMP-9 expression in human ES2 cells at 12 uM by Westernblot analysis relative to control; format: functional, ES-2
A2780 [36] = test: Antitumor activity against human A2780 cells xenografted in BALB/c female nude mouse assessed as decrease in body weight at 10 to 20 mg/kg, ip administered on day 24 and measured every other day for 45 days; format: functional, organism-based; settings: dose 10-20 mg/kg, time 45.0 day
A2780 [37] = test: Antitumor activity against human A2780 cells xenografted in BALB/c female nude mouse assessed as decrease in tumor growth rate at 10 to 20 mg/kg, ip administered on day 24 and measured every other day for 45 days; format: functional, organism-based; settings: dose 10-20 mg/kg, time 45.0 day
A2780 [38] = test: Antitumor activity against human A2780 cells xenografted in BALB/c female nude mouse assessed as decrease in tumor volume at 10 to 20 mg/kg, ip administered on day 24 and measured every other day for 45 days; format: functional, organism-based; settings: dose 10-20 mg/kg, time 45.0 day
[39] = Toxicity in human A2780 cells xenografted in BALB/c female nude mouse assessed as effect on spleen index at 10 to 20 mg/kg, ip administered on day 24 and measured every other day for 45 days; format: organism-based; settings: in vivo, 1080 h, dose 10-20 mg/kg, time 45 day
[40] = Toxicity in human A2780 cells xenografted in BALB/c female nude mouse assessed as effect on body weight at 10 to 20 mg/kg, ip administered on day 24 and measured every other day for 45 days; format: organism-based; settings: in vivo, 1080 h, dose 10-20 mg/kg, time 45 day
A2780 [41] = test: Antitumor activity against human A2780 cells xenografted in BALB/c female nude mouse assessed as disordered tumor cells at 10 to 20 mg/kg, ip administrated for 28 days by HE staining based analysis; format: functional, organism-based; settings: dose 10-20 mg/kg, time 28.0 day
A2780 [42] = test: Antitumor activity against human A2780 cells xenografted in BALB/c female nude mouse assessed as irregular tumor shape at 10 to 20 mg/kg, ip administrated for 28 days by HE staining based analysis; format: functional, organism-based; settings: dose 10-20 mg/kg, time 28.0 day
A2780 [43] = test: Antitumor activity against human A2780 cells xenografted in BALB/c female nude mouse assessed as reduction in cells with hyaline cytoplasm at 10 to 20 mg/kg, ip administrated for 28 days by HE staining based analysis; format: functional, organism-based; settings: dose 10-20 mg/kg, time 28.0 day
A2780 [44] = test: Antitumor activity against human A2780 cells xenografted in BALB/c female nude mouse assessed as decrease in AKT positive cells at 10 to 20 mg/kg, ip administrated for 28 days by immunohistochemical analysis; format: functional, organism-based; settings: dose 10-20 mg/kg, time 28.0 day
A2780 [45] = test: Antitumor activity against human A2780 cells xenografted in BALB/c female nude mouse assessed as reduction in EGFR positive cells at 20 mg/kg, ip administrated for 28 days by immunohistochemical analysis; format: functional, organism-based; settings: time 28.0 day
A2780 [46] = test: Anticancer activity against human A2780 cells xenografted in BALB/c female nude mouse assessed as decrease in abundance of firmicutes at 10 to 20 mg/kg, ip administrated for 28 days; format: functional, organism-based; settings: dose 10-20 mg/kg, time 28.0 day
A2780 [47] = test: Anticancer activity against human A2780 cells xenografted in BALB/c female nude mouse assessed as increase in abundance of alistipes at 10 to 20 mg/kg, ip administrated for 28 days; format: functional, organism-based; settings: dose 10-20 mg/kg, time 28.0 day
A2780 [48] = test: Anticancer activity against human A2780 cells xenografted in BALB/c female nude mouse assessed as increase in intestinal microbial diversity at 10 to 20 mg/kg, ip administrated for 28 days; format: functional, organism-based; settings: dose 10-20 mg/kg, time 28.0 day

Compound: C=C(C)[C@@H]1CCC(C)=C[C@H]1c1c(O)cc(CCCCC)cc1O [CANNABIDIOL]
- Activity (A2780 [1]): Active
- Activity (A2780 [2]): Dose-Dependent Effect
- Activity (A2780 [3]): Tde
- Activity (ES-2 [4]): Dose-Dependent Effect
- Activity (ES-2 [5]): Tde
- Activity (A2780 [6]): Dose-Dependent Effect
- Activity (ES-2 [7]): Dose-Dependent Effect
- Activity (A2780 [8]): 27%
- Activity (ES-2 [9]): 24%
- Activity (A2780 [10]): 75%
- Activity (A2780 [11]): 62%
- Activity (A2780 [12]): 52%
- Activity (ES-2 [13]): 73%
- Activity (ES-2 [14]): 53%
- Activity (ES-2 [15]): 26%
- Activity (A2780 [16]): 71%
- Activity (A2780 [17]): 56%
- Activity (A2780 [18]): 61%
- Activity (ES-2 [19]): 80%
- Activity (ES-2 [20]): 39%
- Activity (ES-2 [21]): 32%
- Activity (A2780 [22]): Dose-Dependent Effect
- Activity (A2780 [23]): Dose-Dependent Effect
- Activity (A2780 [24]): Dose-Dependent Effect
- Activity (A2780 [25]): Dose-Dependent Effect
- Activity (ES-2 [26]): Dose-Dependent Effect
- Activity (ES-2 [27]): Dose-Dependent Effect
- Activity (ES-2 [28]): Dose-Dependent Effect
- Activity (ES-2 [29]): Dose-Dependent Effect
- Activity [30]: 58%
- Activity [31]: 77%
- Activity [32]: 77%
- Activity [33]: 79%
- Activity [34]: 77%
- Activity [35]: 81%
- Activity (A2780 [36]): Active
- Activity (A2780 [37]): Active
- Activity (A2780 [38]): Active
- Activity [39]: Non-Toxic
- Activity [40]: Non-Toxic
- Activity (A2780 [41]): Active
- Activity (A2780 [42]): Active
- Activity (A2780 [43]): Active
- Activity (A2780 [44]): Active
- Activity (A2780 [45]): Active
- Activity (A2780 [46]): Active
- Activity (A2780 [47]): Active
- Activity (A2780 [48]): Active
